In US7618983B2, “Bicyclic triazole α4 integrin inhibitors” (Janssen Pharmaceutica, N.V., priority 2004, dated 2009):
Read-outs that look alike come from different tables or passages of the source.

Key:
human α4β7 integrin = target: T1, human α4β7 integrin (Homo sapiens, UniProt P13612+P26010); experiment: α4β7-K562 Cell Adhesion Assay (α4β7 Mediated Adhesion/MAdCAM-1); assay type: cell-based
T1 construct: expressed in transfected cells; host or cells: K562 cells, stably transfected
T1 sequence (P13612 34-1032): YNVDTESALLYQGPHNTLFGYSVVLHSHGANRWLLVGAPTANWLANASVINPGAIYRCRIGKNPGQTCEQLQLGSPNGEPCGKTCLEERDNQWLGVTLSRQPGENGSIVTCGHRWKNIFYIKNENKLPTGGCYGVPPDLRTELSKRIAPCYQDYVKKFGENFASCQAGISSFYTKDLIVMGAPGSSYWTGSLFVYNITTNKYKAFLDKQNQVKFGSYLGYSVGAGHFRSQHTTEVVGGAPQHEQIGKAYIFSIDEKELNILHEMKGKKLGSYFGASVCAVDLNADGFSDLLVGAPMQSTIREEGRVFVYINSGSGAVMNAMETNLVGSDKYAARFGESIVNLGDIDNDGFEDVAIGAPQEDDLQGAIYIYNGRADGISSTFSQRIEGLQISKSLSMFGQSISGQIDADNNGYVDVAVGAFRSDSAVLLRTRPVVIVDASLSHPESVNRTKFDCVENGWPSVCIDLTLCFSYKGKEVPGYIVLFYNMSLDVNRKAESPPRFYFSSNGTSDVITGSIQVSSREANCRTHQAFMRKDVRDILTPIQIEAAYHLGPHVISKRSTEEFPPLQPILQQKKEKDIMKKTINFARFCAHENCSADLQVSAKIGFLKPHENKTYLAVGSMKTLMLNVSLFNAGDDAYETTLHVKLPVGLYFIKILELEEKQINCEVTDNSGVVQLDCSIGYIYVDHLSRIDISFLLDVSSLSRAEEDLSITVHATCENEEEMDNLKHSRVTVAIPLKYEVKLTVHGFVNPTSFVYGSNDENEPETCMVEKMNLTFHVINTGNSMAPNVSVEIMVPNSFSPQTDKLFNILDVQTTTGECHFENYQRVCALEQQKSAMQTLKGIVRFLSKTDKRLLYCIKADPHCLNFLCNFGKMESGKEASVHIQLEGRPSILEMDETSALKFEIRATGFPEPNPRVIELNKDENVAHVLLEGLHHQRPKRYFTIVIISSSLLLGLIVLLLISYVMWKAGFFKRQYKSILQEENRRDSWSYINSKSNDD
T1 sequence (P26010 20-798): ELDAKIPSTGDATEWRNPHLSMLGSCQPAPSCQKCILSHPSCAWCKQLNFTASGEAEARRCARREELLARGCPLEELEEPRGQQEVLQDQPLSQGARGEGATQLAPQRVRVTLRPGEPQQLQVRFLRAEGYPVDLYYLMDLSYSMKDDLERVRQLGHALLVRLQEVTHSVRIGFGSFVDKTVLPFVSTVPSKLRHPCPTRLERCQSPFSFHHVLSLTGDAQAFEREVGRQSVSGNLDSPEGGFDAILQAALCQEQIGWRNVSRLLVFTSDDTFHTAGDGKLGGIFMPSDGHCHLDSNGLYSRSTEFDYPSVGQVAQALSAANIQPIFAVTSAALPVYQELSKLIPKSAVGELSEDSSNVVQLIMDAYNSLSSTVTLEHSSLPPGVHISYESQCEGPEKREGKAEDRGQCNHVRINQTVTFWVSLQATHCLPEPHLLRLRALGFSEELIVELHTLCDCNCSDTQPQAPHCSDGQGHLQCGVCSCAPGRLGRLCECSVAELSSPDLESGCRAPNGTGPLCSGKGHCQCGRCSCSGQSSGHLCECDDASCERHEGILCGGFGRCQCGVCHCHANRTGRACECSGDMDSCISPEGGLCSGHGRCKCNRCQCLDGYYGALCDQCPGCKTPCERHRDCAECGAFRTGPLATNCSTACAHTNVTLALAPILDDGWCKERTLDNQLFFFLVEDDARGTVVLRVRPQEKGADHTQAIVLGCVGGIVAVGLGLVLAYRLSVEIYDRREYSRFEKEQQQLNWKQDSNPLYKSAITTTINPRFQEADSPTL
Procedure: α4β7-K562 Cell Adhesion Assay (α4β7 Mediated Adhesion/MAdCAM-1)
M2 anti-FLAG antibody coated 96-well plates (Sigma) were coated for 1 hour at 4° C. with 2-8 μl/well recombinant FLAG-hMAdCAM-1 contained in 100 μL of Dulbecco's PBS, pH 7.4, with 1% BSA and 1 mM Mn^2+ (PBS-BSA-Mn). Plates were washed once with PBS-BSA-Mn. Buffer was removed and compounds to be tested (50 μL) were added at 2 times concentration. Stably transfected K562 cells expressing human α4β7 integrin, (50 μL at 2×10^6/mL) that had been labeled with 100 μg/mL carboxymethyl fluorescein diacetate succinimidyl ester (CFDA-SE; Molecular Probes) for 15 min at 37° C. were added to each well and allowed to adhere for 1 h at room temperature. Plates were washed 4 times in PBS-BSA-Mn and then cells were lysed for 2 minutes by addition of 100 μL of PBS without Ca, Mg supplemented with 0.1 M NaOH. The plate was read on a 96-well fluorescent plate reader at 485 nm excitation and 530 nm emission.

α4β1 = α4β1 (Homo sapiens, UniProt P05556+P13612); experiment: Ramos Cell Adhesion Assay (α4β1 Mediated Adhesion/VCAM-1); assay type: cell-based; set-up: Ramos Cell Adhesion Assay (α4β1 Mediated Adhesion/VCAM-1); endogenous in cells; host or cells: Ramos cells
Sequence of α4β1 (P05556 21-798, one chain of several): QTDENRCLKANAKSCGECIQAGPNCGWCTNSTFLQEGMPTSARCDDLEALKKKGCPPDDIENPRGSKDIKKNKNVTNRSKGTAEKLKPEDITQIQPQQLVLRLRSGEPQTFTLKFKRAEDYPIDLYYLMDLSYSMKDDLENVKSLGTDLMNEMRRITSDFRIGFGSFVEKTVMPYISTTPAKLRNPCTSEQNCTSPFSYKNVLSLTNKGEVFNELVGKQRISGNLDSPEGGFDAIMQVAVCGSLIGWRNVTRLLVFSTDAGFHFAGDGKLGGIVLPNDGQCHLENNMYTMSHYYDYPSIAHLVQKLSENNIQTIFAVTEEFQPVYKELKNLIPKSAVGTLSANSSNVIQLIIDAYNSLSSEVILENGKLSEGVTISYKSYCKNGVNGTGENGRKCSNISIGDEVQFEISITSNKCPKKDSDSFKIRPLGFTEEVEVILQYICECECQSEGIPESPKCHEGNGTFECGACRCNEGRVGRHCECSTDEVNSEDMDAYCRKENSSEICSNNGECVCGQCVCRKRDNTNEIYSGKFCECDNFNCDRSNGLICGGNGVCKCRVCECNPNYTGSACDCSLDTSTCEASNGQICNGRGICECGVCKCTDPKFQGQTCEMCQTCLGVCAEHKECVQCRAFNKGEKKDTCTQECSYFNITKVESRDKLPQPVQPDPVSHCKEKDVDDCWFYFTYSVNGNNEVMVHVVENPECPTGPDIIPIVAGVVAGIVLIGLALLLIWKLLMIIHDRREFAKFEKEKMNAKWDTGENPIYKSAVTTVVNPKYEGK
Procedure: Ramos Cell Adhesion Assay (α4β1 Mediated Adhesion/VCAM-1)
Immulon 96 well plates (Dynex) were coated with 100 μL recombinant hVCAM-1 at 4.0 μg/mL in 0.05 M NaCO3 buffer pH 9.0 overnight at 4° C. (R&D Systems). Plates were washed 3 times in PBS with 1% BSA and blocked for 1 h @ room temperature in this buffer. PBS was removed and compounds to be tested (50 μL) were added at 2× concentration. Ramos cells, (50 μL at 2×10^6/mL) labeled with 5 μM Calcein AM (Molecular Probes) for 1 h at 37° C., were added to each well and allowed to adhere for 1 h at room temperature. Plates were washed 3× in PBS+1% BSA and cells were lysed for 15 minutes in 100 μL of 1 M Tris pH 8.0 with 1% SDS. The plate was read at 485 nm excitation and 530 nm emission.

[1] = K562 cells expressing human α4β7 adhering to FLAG-hMAdCAM-1, 1 mM Mn2+, read-out: α4β7, Madcam IC50
[2] = Ramos cells adhering to recombinant hVCAM-1, read-out: α4β1 IC50

SMILES	IC50 (human α4β7 integrin; [1]) [nM]	IC50 (α4β1; [2]) [nM]	IC50 (human α4β7 integrin) [nM]	IC50 (α4β1) [nM]
O=C(Nc1ccc(C[C@H](NC(=O)[C@@H]2CCc3nnc(Cc4ccccc4)n32)C(=O)O)cc1)c1ccc2ccccc2c1 [Cpd 6, 2-(S)-[(3-Benzyl-6,7-dihydro-5H-pyrrolo[2,1-c][1,2,4]triazole-5-(S)-carbonyl)-amino]-3-{4-[(naphthalene-2-carbonyl)-amino]-phenyl}-propionic acid]	> 5000	> 5000	–	–
NCc1nnc2n1[C@H](C(=O)N[C@@H](Cc1ccc(NC(=O)c3c(Cl)cccc3Cl)cc1)C(=O)O)CC2 [Cpd 14, 2-(S)-[(3-Aminomethyl-6,7-dihydro-5H-pyrrolo[2,1-c][1,2,4]triazole-5-(S)-carbonyl)-amino]-3-[4-(2,6-dichloro-benzoylamino)-phenyl]-propionic acid]	–	> 5000	–	–
CN(C)C(=O)Oc1ccc(C[C@H](NC(=O)C2CCCc3nnc(-c4ccccc4)n32)C(=O)O)cc1 (stereo partly drawn) [Cpd 1, 3-(4-Dimethylcarbamoyloxy-phenyl)-2-(S)-[(3-phenyl-5,6,7,8-tetrahydro-[1,2,4]triazolo[4,3-a]pyridine-5-carbonyl)-amino]-propionic acid]	–	–	1220	3300
O=C(NCc1nnc2n1[C@H](C(=O)N[C@@H](Cc1ccc(NC(=O)c3c(Cl)cccc3Cl)cc1)C(=O)O)CC2)OCc1ccccc1 [Cpd 11, 2-(S)-{[3-(Benzyloxycarbonylamino-methyl)-6,7-dihydro-5H-pyrrolo[2,1-c][1,2,4]triazole-5-(S)-carbonyl]-amino}-3-[4-(2,6-dichloro-benzoylamino)-phenyl]-propionic acid]	550	> 5000	–	–
O=C(Nc1ccc(C[C@H](NC(=O)[C@@H]2CCc3nnc(Cc4ccccc4)n32)C(=O)O)cc1)c1cccc2ccccc12 [Cpd 5, 2-(S)-[(3-Benzyl-6,7-dihydro-5H-pyrrolo[2,1-c][1,2,4]triazole-5-(S)-carbonyl)-amino]-3-{4-[(naphthalene-1-carbonyl)-amino]-phenyl}-propionic acid]	> 5000	> 5000	–	–
O=C(Nc1ccc(C[C@H](NC(=O)[C@@H]2CCc3nn(Cc4ccccc4)c(=O)n32)C(=O)O)cc1)c1c(Cl)cncc1Cl [Cpd 21, 2-(S)-[(2-Benzyl-3-oxo-2,5,6,7-tetrahydro-3H -pyrrolo[2,1-c][1,2,4]triazole-5-(S)-carbonyl)-amino]-3-{4-[(3,5-dichloro-pyridine-4-carbonyl)-amino]-phenyl}-propionic acid]	780	> 5000	–	–
CCOc1ccc2ccccc2c1C(=O)Nc1ccc(C[C@H](NC(=O)[C@@H]2CCc3nnc(Cc4ccccc4)n32)C(=O)O)cc1 [Cpd 7, 2-(S)-[(3-Benzyl-6,7-dihydro-5H-pyrrolo[2,1-c][1,2,4]triazole-5-(S)-carbonyl)-amino]-3-{4-[(2-ethoxy-naphthalene-1-carbonyl)-amino]-phenyl}-propionic acid]	> 5000	> 5000	–	–

Now from value to compound, other results behind:

IC50 (human α4β7 integrin; [1]) [nM]	IC50 (α4β1; [2]) [nM]	SMILES	IC50 (human α4β7 integrin) [nM]	IC50 (α4β1) [nM]
40	> 5000	COc1cccc(OC)c1-c1ccc(CC(NC(=O)C2CCc3nnc(Cc4c[nH]c5ccccc45)n32)C(=O)O)cc1 (stereo not drawn) [Cpd 16, 3-(2′,6′-Dimethoxy-biphenyl-4-yl)-2-{[3-(1H-indol-3-ylmethyl)-6,7-dihydro-5H-pyrrolo[2,1-c][1,2,4]triazole-5-carbonyl]-amino}-propionic acid]	–	–
80	1040	CCCc1nnc2n1[C@H](C(=O)N[C@@H](Cc1ccc(NC(=O)c3c(Cl)cccc3Cl)cc1)C(=O)O)CC2 [Cpd 10, 3-[4-(2,6-Dichloro-benzoylamino)-phenyl]-2-(S)-[(3-propyl-6,7-dihydro-5H-pyrrolo[2,1-c][1,2,4]triazole-5-(S)-carbonyl)-amino]-propionic acid]	–	–
320	1190	COc1cccc(OC)c1-c1ccc(C[C@H](NC(=O)[C@@H]2CCc3nnc(Cc4ccccc4)n32)C(=O)O)cc1 [Cpd 13, 2-(S)-[(3-Benzyl-6,7-dihydro-5H-pyrrolo[2,1-c][1,2,4]triazole-5-(S)-carbonyl)-amino]-3-(2′,6′-dimethoxy-biphenyl-4-yl)-propionic acid]	–	–
400	640	COc1cnn(C)c(=O)c1-c1ccc(C[C@H](NC(=O)[C@@H]2CCc3nnc(Cc4ccccc4)n32)C(=O)O)cc1 [Cpd 17, 2-(S)-[(3-Benzyl-6,7-dihydro-5H-pyrrolo[2,1-c][1,2,4]triazole-5-(S)-carbonyl)-amino]-3-[4-(5-methoxy-2-methyl-3-oxo-2,3-dihydro-pyridazin-4-yl)-phenyl]-propionic acid]	–	–
120	380	O=C(Nc1ccc(C[C@H](NC(=O)[C@@H]2CCc3nnc(Cc4ccsc4)n32)C(=O)O)cc1)c1c(Cl)cccc1Cl [Cpd 12, 3-[4-(2,6-Dichloro-benzoylamino)-phenyl]-2-(S)-[(3-thiophen-3-ylmethyl-6,7-dihydro-5H-pyrrolo[2,1-c][1,2,4]triazole-5-(S)-carbonyl)-amino]-propionic acid]	–	–
290	620	O=C(Nc1ccc(C[C@H](NC(=O)[C@@H]2CCc3nnc(Cc4ccccc4)n32)C(=O)O)cc1)c1c(Cl)cccc1Cl [Cpd 4, 2-(S)-[(3-Benzyl-6,7-dihydro-5H-pyrrolo[2,1-c][1,2,4]triazole-5-(S)-carbonyl)-amino]-3-[4-(2,6-dichloro-benzoylamino)-phenyl]-propionic acid]	–	–
350	1560	O=C(Nc1ccc(C[C@H](NC(=O)[C@@H]2CCc3nnc(Cc4ccccc4)n32)C(=O)O)cc1)c1cccc2c1-c1ccccc1C2=O [Cpd 8, 2-(S)-[(3-Benzyl-6,7-dihydro-5H-pyrrolo[2,1-c][1,2,4]triazole-5-(S)-carbonyl)-amino]-3-{4-[(9-oxo-9H-fluorene-4-carbonyl)-amino]-phenyl}-propionic acid]	–	–
